Publication PMC8949771, “Gold(I)-Mediated Rapid Cyclization of Propargylated Peptides via Imine Formation” (Journal of the American Chemical Society, 2022)

Assay: Au(I)-mediated imine macrocyclisation: N-terminal amine adds (Markovnikov) to N-propargyl backbone amide alkyne; JohnPhosAu(MeCN)SbF6 2 equiv, Et4NBr 16 equiv; in situ NaBH4 10 equiv reduction 15 min for quantification
Conditions: DMF, 8.0 mM, 37.0 °C

Which ring closure, conversion by HPLC (from C#CCN(CC(N)=O)C(=O)CNC(=O)[C@H](C)NC(=O)[C@H](CCCNC(=N)N)NC(=O)[C@H](Cc1ccc(O)cc1)NC(=O)[C@H](CC(C)C)NC(=O)CNC(=O)[C@@H](N)Cc1c[nH]c2ccccc12, 24-membered ring, 1.0 h) does the source give for `CC(C)C[C@@H]1NC(=O)CNC(=O)[C@H](Cc2c[nH]c3ccccc23)NC(C)CN(CC(N)=O)C(=O)CNC(=O)[C@H](C)NC(=O)[C@H](CCCNC(=N)N)NC(=O)[C@H](Cc2ccc(O)cc2)NC1=O` (stereo partly drawn) [H-Trp-Gly-Leu-Tyr-Arg-Ala-Gly-(N-propargyl)Gly-NH2] here?
Its ring closure, conversion by HPLC is 83%.

With `CC(C)C[C@@H]1NC(=O)CNC(C)CN(CC(N)=O)C(=O)CNC(=O)[C@H](C)NC(=O)[C@H](CS)NC(=O)[C@H](Cc2ccc(O)cc2)NC1=O` (stereo partly drawn) [H-Gly-Leu-Tyr-Cys-Ala-Gly-(N-propargyl)Gly-NH2] as the compound, how does the ring closure, conversion by HPLC (from C#CCN(CC(N)=O)C(=O)CNC(=O)[C@H](C)NC(=O)[C@H](CS)NC(=O)[C@H](Cc1ccc(O)cc1)NC(=O)[C@H](CC(C)C)NC(=O)CN, 21-membered ring, 0.5 h) read?
The ring closure, conversion by HPLC was 75%.

For `CC(C)C[C@@H]1NC(=O)CNC(=O)[C@H](Cc2ccccc2)NC(C)CN(CC(N)=O)C(=O)CNC(=O)[C@H](C)NC(=O)[C@H](CCC(N)=O)NC(=O)[C@H](Cc2ccc(O)cc2)NC1=O` (stereo partly drawn) [H-Phe-Gly-Leu-Tyr-Gln-Ala-Gly-(N-propargyl)Gly-NH2], which ring closure, conversion by HPLC (from C#CCN(CC(N)=O)C(=O)CNC(=O)[C@H](C)NC(=O)[C@H](CCC(N)=O)NC(=O)[C@H](Cc1ccc(O)cc1)NC(=O)[C@H](CC(C)C)NC(=O)CNC(=O)[C@@H](N)Cc1ccccc1, 24-membered ring, 1.0 h) is on record?
The ring closure, conversion by HPLC was 64%.

For `CC(C)C[C@@H]1NC(=O)CNC(=O)[C@H](CC(N)=O)NC(C)CN(CC(N)=O)C(=O)CNC(=O)[C@H](C)NC(=O)[C@H](CCCNC(=N)N)NC(=O)[C@H](Cc2ccc(O)cc2)NC1=O` (stereo partly drawn) [H-Asn-Gly-Leu-Tyr-Arg-Ala-Gly-(N-propargyl)Gly-NH2], which ring closure, conversion by HPLC (from C#CCN(CC(N)=O)C(=O)CNC(=O)[C@H](C)NC(=O)[C@H](CCCNC(=N)N)NC(=O)[C@H](Cc1ccc(O)cc1)NC(=O)[C@H](CC(C)C)NC(=O)CNC(=O)[C@@H](N)CC(N)=O, 24-membered ring, 1.0 h) is on record?
The ring closure, conversion by HPLC was 76%.

With `CC(C)C[C@@H]1NC(=O)CNC(C)CN(CC(N)=O)C(=O)CNC(=O)CNC(=O)CNC(=O)[C@H](C)NC(=O)[C@H](CCCNC(=N)N)NC(=O)[C@H](Cc2ccc(O)cc2)NC(=O)[C@H](CC(C)C)NC(=O)[C@H](Cc2ccccc2)NC(=O)CNC(=O)CNC(=O)[C@H](C)NC(=O)[C@H](CCCNC(=N)N)NC(=O)[C@H](Cc2ccc(O)cc2)NC(=O)[C@H](CC(C)C)NC1=O` (some centres unmarked) as the compound, how does the ring closure, conversion by HPLC (from C#CCN(CC(N)=O)C(=O)CNC(=O)CNC(=O)CNC(=O)[C@H](C)NC(=O)[C@H](CCCNC(=N)N)NC(=O)[C@H](Cc1ccc(O)cc1)NC(=O)[C@H](CC(C)C)NC(=O)[C@H](Cc1ccccc1)NC(=O)CNC(=O)CNC(=O)[C@H](C)NC(=O)[C@H](CCCNC(=N)N)NC(=O)[C@H](Cc1ccc(O)cc1)NC(=O)[C@H](CC(C)C)NC(=O)[C@H](CC(C)C)NC(=O)CN, 51-membered ring, 1.0 h) read?
Its ring closure, conversion by HPLC is 94%.

Which ring closure, conversion by HPLC (from C#CCN(CC(N)=O)C(=O)CNC(=O)[C@H](C)NC(=O)[C@H](CCCNC(=N)N)NC(=O)[C@H](Cc1ccc(O)cc1)NC(=O)[C@H](CC(C)C)NC(=O)CNC(=O)[C@@H](N)CC(=O)O, 24-membered ring, 1.0 h) does the source give for `CC(C)C[C@@H]1NC(=O)CNC(=O)[C@H](CC(=O)O)NC(C)CN(CC(N)=O)C(=O)CNC(=O)[C@H](C)NC(=O)[C@H](CCCNC(=N)N)NC(=O)[C@H](Cc2ccc(O)cc2)NC1=O` (stereo partly drawn) [H-Asp-Gly-Leu-Tyr-Arg-Ala-Gly-(N-propargyl)Gly-NH2] here?
The ring closure, conversion by HPLC was 76%.

Which ring closure, conversion by HPLC (from C#CCN(CC(N)=O)C(=O)[C@H](CO)NC(=O)[C@H](C)NC(=O)[C@H](CCCNC(=N)N)NC(=O)[C@H](Cc1ccc(O)cc1)NC(=O)[C@H](CC(C)C)NC(=O)CNC(=O)[C@@H](N)Cc1ccccc1, 24-membered ring, 1.0 h) does the source give for `CC(C)C[C@@H]1NC(=O)CNC(=O)[C@H](Cc2ccccc2)NC(C)CN(CC(N)=O)C(=O)[C@H](CO)NC(=O)[C@H](C)NC(=O)[C@H](CCCNC(=N)N)NC(=O)[C@H](Cc2ccc(O)cc2)NC1=O` (stereo partly drawn) [H-Phe-Gly-Leu-Tyr-Arg-Ala-Ser-(N-propargyl)Gly-NH2] here?
Its ring closure, conversion by HPLC is 64%.

With `CC(C)C[C@@H]1NC(=O)CNC(=O)[C@H](Cc2ccccc2)NC(C)CN([C@@H](Cc2ccccc2)C(N)=O)C(=O)CNC(=O)[C@H](C)NC(=O)[C@H](CCCNC(=N)N)NC(=O)[C@H](Cc2ccc(O)cc2)NC1=O` (stereo partly drawn) [H-Phe-Gly-Leu-Tyr-Arg-Ala-Gly-(N-propargyl)Phe-NH2] as the compound, how does the ring closure, conversion by HPLC (from C#CCN(C(=O)CNC(=O)[C@H](C)NC(=O)[C@H](CCCNC(=N)N)NC(=O)[C@H](Cc1ccc(O)cc1)NC(=O)[C@H](CC(C)C)NC(=O)CNC(=O)[C@@H](N)Cc1ccccc1)[C@@H](Cc1ccccc1)C(N)=O, 24-membered ring, 1.0 h) read?
The ring closure, conversion by HPLC was 88%.

For `CC(C)C[C@@H]1NC(=O)CNC(=O)[C@H](Cc2ccccc2)NC(C)CN(CC(N)=O)C(=O)[C@H](C)NC(=O)[C@H](C)NC(=O)[C@H](CCCNC(=N)N)NC(=O)[C@H](Cc2ccc(O)cc2)NC1=O` (stereo partly drawn) [H-Phe-Gly-Leu-Tyr-Arg-Ala-Ala-(N-propargyl)Gly-NH2], which ring closure, conversion by HPLC (from C#CCN(CC(N)=O)C(=O)[C@H](C)NC(=O)[C@H](C)NC(=O)[C@H](CCCNC(=N)N)NC(=O)[C@H](Cc1ccc(O)cc1)NC(=O)[C@H](CC(C)C)NC(=O)CNC(=O)[C@@H](N)Cc1ccccc1, 24-membered ring, 1.0 h) is on record?
Its ring closure, conversion by HPLC is 89%.

For `CC(C)C[C@@H]1NC(=O)CNC(=O)[C@H](CS)NC(C)CN(CC(N)=O)C(=O)CNC(=O)[C@H](C)NC(=O)[C@H](CCCNC(=N)N)NC(=O)[C@H](Cc2ccc(O)cc2)NC1=O` (stereo partly drawn) [H-Cys-Gly-Leu-Tyr-Arg-Ala-Gly-(N-propargyl)Gly-NH2], which ring closure, conversion by HPLC (from C#CCN(CC(N)=O)C(=O)CNC(=O)[C@H](C)NC(=O)[C@H](CCCNC(=N)N)NC(=O)[C@H](Cc1ccc(O)cc1)NC(=O)[C@H](CC(C)C)NC(=O)CNC(=O)[C@@H](N)CS, 24-membered ring, 1.0 h) is on record?
Its ring closure, conversion by HPLC is 76%.

With `CC(C)C[C@@H]1NC(=O)CNC(=O)[C@H](Cc2ccccc2)NC(C)CN(CC(N)=O)C(=O)CNC(=O)[C@H](C)NC(=O)[C@H](CC(=O)O)NC(=O)[C@H](Cc2ccc(O)cc2)NC1=O` (stereo partly drawn) [H-Phe-Gly-Leu-Tyr-Asp-Ala-Gly-(N-propargyl)Gly-NH2] as the compound, how does the ring closure, conversion by HPLC (from C#CCN(CC(N)=O)C(=O)CNC(=O)[C@H](C)NC(=O)[C@H](CC(=O)O)NC(=O)[C@H](Cc1ccc(O)cc1)NC(=O)[C@H](CC(C)C)NC(=O)CNC(=O)[C@@H](N)Cc1ccccc1, 24-membered ring, 1.0 h) read?
Its ring closure, conversion by HPLC is 82%.

Which ring closure, conversion by HPLC (from C#CCN(C(=O)CNC(=O)[C@H](C)NC(=O)[C@H](CCCNC(=N)N)NC(=O)[C@H](Cc1ccc(O)cc1)NC(=O)[C@H](CC(C)C)NC(=O)CNC(=O)[C@@H](N)Cc1ccccc1)[C@H](C(N)=O)[C@@H](C)CC, 24-membered ring, 1.0 h) does the source give for `CC[C@H](C)[C@@H](C(N)=O)N1CC(C)N[C@@H](Cc2ccccc2)C(=O)NCC(=O)N[C@@H](CC(C)C)C(=O)N[C@@H](Cc2ccc(O)cc2)C(=O)N[C@@H](CCCNC(=N)N)C(=O)N[C@@H](C)C(=O)NCC1=O` (stereo partly drawn) [H-Phe-Gly-Leu-Tyr-Arg-Ala-Gly-(N-propargyl)Ile-NH2] here?
The ring closure, conversion by HPLC was 85%.

Which ring closure, conversion by HPLC (from C#CCN(CC(N)=O)C(=O)CNC(=O)[C@H](C)NC(=O)[C@H](CCCNC(=N)N)NC(=O)[C@H](Cc1ccc(O)cc1)NC(=O)[C@H](CC(C)C)NC(=O)CN, 21-membered ring, 0.5 h) does the source give for `CC(C)C[C@@H]1NC(=O)CNC(C)CN(CC(N)=O)C(=O)CNC(=O)[C@H](C)NC(=O)[C@H](CCCNC(=N)N)NC(=O)[C@H](Cc2ccc(O)cc2)NC1=O` (stereo partly drawn) [H-Gly-Leu-Tyr-Arg-Ala-Gly-(N-propargyl)Gly-NH2] here?
Its ring closure, conversion by HPLC is 78%.

Which ring closure, conversion by HPLC (from C#CCN(CC(N)=O)C(=O)[C@H](CC(=O)O)NC(=O)[C@H](C)NC(=O)[C@H](CCCNC(=N)N)NC(=O)[C@H](Cc1ccc(O)cc1)NC(=O)[C@H](CC(C)C)NC(=O)CNC(=O)[C@@H](N)Cc1ccccc1, 24-membered ring, 1.0 h) does the source give for `CC(C)C[C@@H]1NC(=O)CNC(=O)[C@H](Cc2ccccc2)NC(C)CN(CC(N)=O)C(=O)[C@H](CC(=O)O)NC(=O)[C@H](C)NC(=O)[C@H](CCCNC(=N)N)NC(=O)[C@H](Cc2ccc(O)cc2)NC1=O` (stereo partly drawn) [H-Phe-Gly-Leu-Tyr-Arg-Ala-Asp-(N-propargyl)Gly-NH2] here?
The ring closure, conversion by HPLC was 80%.

With `CC(C)C[C@@H]1NC(=O)CNC(=O)[C@H](Cc2ccccc2)NC(C)CN(CC(N)=O)C(=O)CNC(=O)[C@H](C)NC(=O)[C@H](Cc2c[nH]cn2)NC(=O)[C@H](Cc2ccc(O)cc2)NC1=O` (stereo partly drawn) [H-Phe-Gly-Leu-Tyr-His-Ala-Gly-(N-propargyl)Gly-NH2] as the compound, how does the ring closure, conversion by HPLC (from C#CCN(CC(N)=O)C(=O)CNC(=O)[C@H](C)NC(=O)[C@H](Cc1c[nH]cn1)NC(=O)[C@H](Cc1ccc(O)cc1)NC(=O)[C@H](CC(C)C)NC(=O)CNC(=O)[C@@H](N)Cc1ccccc1, 24-membered ring, 1.0 h) read?
The ring closure, conversion by HPLC was 57%.

For `CC(C)C[C@@H]1NC(=O)CNC(=O)[C@H](CCC(=O)O)NC(C)CN(CC(N)=O)C(=O)CNC(=O)[C@H](C)NC(=O)[C@H](CCCNC(=N)N)NC(=O)[C@H](Cc2ccc(O)cc2)NC1=O` (stereo partly drawn) [H-Glu-Gly-Leu-Tyr-Arg-Ala-Gly-(N-propargyl)Gly-NH2], which ring closure, conversion by HPLC (from C#CCN(CC(N)=O)C(=O)CNC(=O)[C@H](C)NC(=O)[C@H](CCCNC(=N)N)NC(=O)[C@H](Cc1ccc(O)cc1)NC(=O)[C@H](CC(C)C)NC(=O)CNC(=O)[C@@H](N)CCC(=O)O, 24-membered ring, 1.0 h) is on record?
The ring closure, conversion by HPLC was 89%.

Which ring closure, conversion by HPLC (from C#CCN(C(=O)CNC(=O)[C@H](C)NC(=O)[C@H](CCCNC(=N)N)NC(=O)[C@H](Cc1ccc(O)cc1)NC(=O)[C@H](CC(C)C)NC(=O)CNC(=O)[C@@H](N)Cc1ccccc1)[C@@H](C)C(N)=O, 24-membered ring, 1.0 h) does the source give for `CC(C)C[C@@H]1NC(=O)CNC(=O)[C@H](Cc2ccccc2)NC(C)CN([C@@H](C)C(N)=O)C(=O)CNC(=O)[C@H](C)NC(=O)[C@H](CCCNC(=N)N)NC(=O)[C@H](Cc2ccc(O)cc2)NC1=O` (stereo partly drawn) [H-Phe-Gly-Leu-Tyr-Arg-Ala-Gly-(N-propargyl)Ala-NH2] here?
Its ring closure, conversion by HPLC is 90%.
